Results as given in US20260315487A1, “IKK-ALPHA INHIBITORS” (Cancer Research Technology Limited, priority 2023, published 2026).

What was measured:
[1] = molecular target: T1, haspin (Homo sapiens, UniProt Q8TF76); test: kinome profiling at 1 μM, haspin; assay type: biochemical
T1 sequence (Q8TF76 1-798): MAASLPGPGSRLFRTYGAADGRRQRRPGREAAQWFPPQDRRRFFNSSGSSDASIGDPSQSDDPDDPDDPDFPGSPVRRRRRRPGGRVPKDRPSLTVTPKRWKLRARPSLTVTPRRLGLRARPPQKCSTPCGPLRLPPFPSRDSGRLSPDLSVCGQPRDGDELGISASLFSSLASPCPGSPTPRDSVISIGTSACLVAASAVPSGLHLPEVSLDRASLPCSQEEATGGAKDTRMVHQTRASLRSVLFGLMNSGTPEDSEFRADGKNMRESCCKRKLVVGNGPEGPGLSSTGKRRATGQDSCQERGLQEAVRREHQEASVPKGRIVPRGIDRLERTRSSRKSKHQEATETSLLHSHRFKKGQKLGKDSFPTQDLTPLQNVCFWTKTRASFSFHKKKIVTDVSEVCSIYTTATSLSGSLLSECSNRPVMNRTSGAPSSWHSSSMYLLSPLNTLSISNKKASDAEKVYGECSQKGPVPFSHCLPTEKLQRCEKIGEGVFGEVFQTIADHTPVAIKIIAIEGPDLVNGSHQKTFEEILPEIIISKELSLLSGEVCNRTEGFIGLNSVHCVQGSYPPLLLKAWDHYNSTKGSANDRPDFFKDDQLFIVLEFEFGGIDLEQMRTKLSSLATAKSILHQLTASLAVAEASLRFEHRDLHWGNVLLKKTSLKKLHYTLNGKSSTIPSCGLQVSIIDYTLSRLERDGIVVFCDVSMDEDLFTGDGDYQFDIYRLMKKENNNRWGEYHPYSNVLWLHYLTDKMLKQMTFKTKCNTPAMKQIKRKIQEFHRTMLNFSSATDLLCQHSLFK
Excerpt: We profiled three compounds from the series across the kinome (FIG. 11). […] To identify the structural drivers for CDK inhibition, we obtained X-ray crystal structures of 5 y and 6 g SU1336 and SU1349 with CDK-2 (FIG. 12A) to potentially identify possible routes towards introducing selectivity for IKKα over the CDK enzymes as well as IKKβ. […] All three derivatives form complexes with CDK2 with the pyrrolo[2,3 -b]pyridine H-bonding to GK+3 (Leu 83 ) and the aminoindazole projected towards the G-loop (FIG. 12A), forming H-bonds with Glu 51 and Lys 33 at the back of the pocket. The adoption of the 4 SU1253 -type orientation, rather than the flipped pose observed in IKKα, is probably facilitated by Tr-stacking between the aminoindazole and the GK residue, which in the CDKs is Phe, rather than Met. […] For 6 g SU1349, the hydrophobic pendant benzyloxy group points out into solvent, but can form face-to-edge Tr-Tr interactions with Phe 82 and His 84 from the hinge. Exchanging the hydrophobic pendant benzyloxy group for the morpholinoethyl-containing substituent in 5 y SU1336 removes any direct interaction with these hinge residues, preferring to sit in a more solvent-exposed position, as befits a basic side chain that will be protonated at physiological pH (FIG. 12B).

[2] = molecular target: T2, IKKα (Homo sapiens, UniProt O15111); test: activity and selectivity in cells; assay type: cell-based
T2 sequence (O15111 1-745): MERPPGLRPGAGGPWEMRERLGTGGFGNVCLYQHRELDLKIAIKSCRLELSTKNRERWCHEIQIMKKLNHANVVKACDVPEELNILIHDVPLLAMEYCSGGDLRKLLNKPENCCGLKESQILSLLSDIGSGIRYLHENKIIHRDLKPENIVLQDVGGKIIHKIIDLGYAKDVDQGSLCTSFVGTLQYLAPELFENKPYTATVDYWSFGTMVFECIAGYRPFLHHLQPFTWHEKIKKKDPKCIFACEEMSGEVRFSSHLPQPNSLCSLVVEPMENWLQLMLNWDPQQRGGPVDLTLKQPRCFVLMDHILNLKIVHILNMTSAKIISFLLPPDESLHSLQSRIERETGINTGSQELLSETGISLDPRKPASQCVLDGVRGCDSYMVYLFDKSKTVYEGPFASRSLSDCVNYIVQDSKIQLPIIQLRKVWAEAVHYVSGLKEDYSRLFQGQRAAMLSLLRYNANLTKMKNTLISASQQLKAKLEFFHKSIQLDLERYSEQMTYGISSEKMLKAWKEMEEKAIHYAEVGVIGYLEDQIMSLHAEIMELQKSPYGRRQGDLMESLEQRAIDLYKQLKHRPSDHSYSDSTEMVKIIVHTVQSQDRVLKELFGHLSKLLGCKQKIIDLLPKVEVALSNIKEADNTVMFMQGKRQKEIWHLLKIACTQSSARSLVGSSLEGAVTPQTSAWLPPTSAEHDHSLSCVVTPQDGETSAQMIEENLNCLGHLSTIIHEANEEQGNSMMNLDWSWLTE

[3] = tested on: IKKα over IKKβ; test: selectivity for IKKα over IKKβ from the kinase assay; assay type: biochemical
Excerpt: To examine the pyrrolo[2,3 -b]pyridines as an alternative scaffold, we adopted the AIPP core because it had similar dimensions to 1 SU909, with HBD/HBA motifs positioned at the scaffold extremities to interact with both the hinge region and the G-loop wall of IKKα, a rationale we had previously proposed as the basis for imparting selectivity. A preliminary set of AIPP derivatives was designed to explore its utility as an IKK-targeting scaffold, whilst incorporating additional functionality through which to introduce selectivity for the IKKα isoform (2-4 SU1087, SU1266 and SU1253; FIG. 3). This was achieved by initially adopting two different approaches: either appending a hydrophobic moiety to the pyrrolo[2,3 -b]pyridine motif as a fused form to afford the tricyclic derivatives 2 and 3 SU1266 and SU1087, or as a phenyl substituent to introduce flexibility with the central pyrrolo[2,3 -b]pyridine moiety in 4 SU1253 . […] The pyrrolo[2,3 -b]pyridine was bound to the hinge region in the classical HBA/HBD motif with the GK+3 NH and C═O backbone, whilst the aminoindazole projected towards the top of the pocket to interact with the G-loop (FIG. 4A). […] In both isoforms, the 2 -phenyl moiety was oriented out from the hinge towards the exposed solvent area.
To shift the selectivity profile towards IKKα, we selected 4 SU1253 for structural optimization based on the notion that sigma-bond rotation between the phenyl ring and the pyrrolo[2,3 -b]pyridine would inbuild the flexibility required to engage with the three dimensional array of residues nearby to exploit differences between the two isoforms. Furthermore, this would enable the inclusion of moieties that could also project into solvent and address solubility considerations. Small groups (NH2, OH, OMe, OEt and F) were initially introduced into the phenyl ring to evaluate their impact on the selectivity profile against both IKKs (5 a-g SU1354 -SU1373, Table 2 ). Our goal was to achieve a 1:50 selectivity ratio of IKKα to IKKβ, with a minimum IKKβ inhibitory Ki of 500 nM.

[4] = Turbidimetric solubility; assay type: physicochemical

| inhibition at 1 µM [1] | selectivity for IKKα over IKKβ, in words [3] | selectivity for IKKα over IKKβ ([3]; ratio of Ki) | SMILES | activity and selectivity in cells, in words [2] | solubility, in words [4] |
| --- | --- | --- | --- | --- | --- |
| > 80% | – | – | Nc1n[nH]c2ccc(-c3ccnc4[nH]c(-c5cccc(OCc6ccccc6)c5)cc34)cc12 [5r SU1261, 5-(2-(3-(benzyloxy)phenyl)-1 H-pyrrolo[2,3-b]pyridin-4-yl)-1 H-indazol-3-amine] | activity and selectivity being recapitulated in cells | – |
| – | essential selectivity profile | 209 fold | Nc1n[nH]c2ccc(-c3ccnc4[nH]c(-c5ccnc(OCc6ccccc6)c5)cc34)cc12 [6g SU1349, 5-(2-(2-(Benzyloxy)pyridin-4-yl)-1 H-pyrrolo[2,3-b]pyridin-4-yl)-1 H-indazol-3-amine] | – | most soluble in the series that displayed selectivity |
